According to the supplement of paper PMC10307832:

Columns and labels:
Assay in all cases: relative viability (nuclei count vs DMSO), 5 days (fraction); higher = more cells survive
Bosutinib + Vorinostat = compound: COc1cc(Nc2c(C#N)cnc3cc(OCCCN4CCN(C)CC4)c(OC)cc23)c(Cl)cc1Cl [Bosutinib] + O=C(CCCCCCC(=O)Nc1ccccc1)NO [Vorinostat] (partner 1 µM)
Summary of the method: (§1)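 The day after seeding in 1536-well plates, lung cancer cell lines were treated by pin tool with a single drug, or with a fixed anchor-drug dose together with five library-drug doses (not always all listed) in √10 steps. After 5 days, a combined fix-and-stain solution (final 0.05% Triton X-100, 1% formaldehyde, 1 ug/ml Hoechst) was added. Nuclei counted on 4× images gave relative viability as treated counts over vehicle counts, reported as the median of duplicate plates.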

Bosutinib + Foretinib = compound: COc1cc(Nc2c(C#N)cnc3cc(OCCCN4CCN(C)CC4)c(OC)cc23)c(Cl)cc1Cl [Bosutinib] + COc1cc2c(Oc3ccc(NC(=O)C4(C(=O)Nc5ccc(F)cc5)CC4)cc3F)ccnc2cc1OCCCN1CCOCC1 [Foretinib] (partner 0.25 µM)
Summary of the method: as §1

Bosutinib + Bortezomib = compound: COc1cc(Nc2c(C#N)cnc3cc(OCCCN4CCN(C)CC4)c(OC)cc23)c(Cl)cc1Cl [Bosutinib] + CC(C)C[C@H](NC(=O)[C@H](Cc1ccccc1)NC(=O)c1cnccn1)B(O)O [Bortezomib] (partner 0.002 µM)
Summary of the method: as §1

Bosutinib + Tozasertib = compound: COc1cc(Nc2c(C#N)cnc3cc(OCCCN4CCN(C)CC4)c(OC)cc23)c(Cl)cc1Cl [Bosutinib] + Cc1cc(Nc2cc(N3CCN(C)CC3)nc(Sc3ccc(NC(=O)C4CC4)cc3)n2)n[nH]1 [Tozasertib] (partner 0.1 µM)
Summary of the method: as §1

Bosutinib + Luminespib = compound: COc1cc(Nc2c(C#N)cnc3cc(OCCCN4CCN(C)CC4)c(OC)cc23)c(Cl)cc1Cl [Bosutinib] + CCNC(=O)c1noc(-c2cc(C(C)C)c(O)cc2O)c1-c1ccc(CN2CCOCC2)cc1 [Luminespib] (partner 0.01 µM)
Summary of the method: as §1

Cell Line	relative viability (Bosutinib + Vorinostat; first compound 0.01 µM)	relative viability (Bosutinib + Vorinostat; first compound 0.03162 µM)	relative viability (Bosutinib + Vorinostat; first compound 0.1 µM)	relative viability (Bosutinib + Vorinostat; first compound 1 µM)	relative viability (Bosutinib + Foretinib; first compound 0.01 µM)	relative viability (Bosutinib + Foretinib; first compound 0.03162 µM)	relative viability (Bosutinib + Foretinib; first compound 0.1 µM)	relative viability (Bosutinib + Foretinib; first compound 1 µM)	relative viability (Bosutinib + Bortezomib; first compound 0.01 µM)	relative viability (Bosutinib + Bortezomib; first compound 0.03162 µM)	relative viability (Bosutinib + Bortezomib; first compound 0.1 µM)	relative viability (Bosutinib + Bortezomib; first compound 1 µM)	relative viability (Bosutinib + Tozasertib; first compound 0.01 µM)	relative viability (Bosutinib + Tozasertib; first compound 0.03162 µM)	relative viability (Bosutinib + Tozasertib; first compound 0.1 µM)	relative viability (Bosutinib + Tozasertib; first compound 1 µM)	relative viability (Bosutinib + Luminespib; first compound 0.01 µM)	relative viability (Bosutinib + Luminespib; first compound 0.03162 µM)	relative viability (Bosutinib + Luminespib; first compound 0.1 µM)	relative viability (Bosutinib + Luminespib; first compound 1 µM)
NCI-H1650	0.717	0.623	0.529	0.41	0.917	1.09	0.862	0.599	0.215	0.204	0.214	0.279	0.344	0.407	0.36	0.295	0.193	0.209	0.174	0.154
NCI-H1651	0.548	0.636	0.646	0.569	0.75	0.737	0.909	0.8	0.914	0.942	0.994	0.978	0.586	0.742	0.612	0.624	0.738	0.942	0.812	0.902
NCI-H1666	0.99	0.99	1.12	1.22	1.04	0.936	0.976	0.921	0.794	0.74	0.977	0.746	0.57	0.626	0.629	0.662	1.02	1.01	0.995	1.1
NCI-H1734	0.836	0.86	0.855	0.654	0.888	0.837	0.849	0.719	0.948	0.951	0.827	0.879	0.245	0.242	0.245	0.248	0.172	0.181	0.217	0.196
NCI-H1755	0.809	0.919	0.904	0.731	0.974	0.988	0.983	0.801	0.941	1.07	1.03	0.894	0.585	0.736	0.605	0.5	0.465	0.454	0.45	0.351
NCI-H1915	0.509	0.531	0.578	0.571	1.07	1.1	1.11	1.11	0.942	0.932	1.02	1.01	0.438	0.449	0.429	0.419	0.768	0.816	0.815	0.64
NCI-H1975	0.654	0.684	0.684	0.673	0.981	0.975	0.977	0.841	0.432	0.399	0.424	0.388	0.739	0.871	0.687	0.583	0.244	0.252	0.21	0.141
NCI-H1993	0.727	0.733	0.654	0.885	0.819	0.672	0.778	0.564	1.11	1.26	1.08	0.949	0.549	0.538	0.564	0.496	0.688	0.817	0.875	0.887
NCI-H2009	0.78	0.809	0.758	0.562	1.22	1.24	1.2	0.857	1.17	1.08	1.1	0.795	0.732	0.82	0.73	0.572	1.01	1.08	1.06	0.671
NCI-H2023	0.617	0.661	0.767	0.396	0.874	0.921	0.81	0.498	0.945	1.01	1.06	0.813	0.295	0.462	0.399	0.233	0.802	0.852	0.704	0.579
NCI-H2085	0.866	0.769	0.788	0.705	0.949	0.983	0.806	0.935	0.982	0.969	1.02	1.04	0.782	0.692	0.765	0.738	0.393	0.466	0.492	0.44
NCI-H2087	0.777	0.5	0.647	0.697	1.02	1.02	1.17	1.1	0.809	1.02	0.876	1.03	0.293	0.227	0.222	0.271	0.194	0.154	0.146	0.151
NCI-H2126	0.71	0.799	0.858	0.722	1.08	1.12	1.25	1.14	1.06	1.1	1.07	1.11	0.823	0.811	0.828	0.763	0.848	0.828	0.874	0.725
NCI-H2228	0.664	0.442	0.605	0.552	0.762	0.931	0.887	0.744	1.03	–	1.16	1.12	0.313	0.319	0.306	0.287	0.104	0.185	0.167	0.109
NCI-H2347	0.461	0.579	0.654	0.543	0.929	0.878	0.988	0.885	1.12	1.3	1.09	0.923	0.599	0.571	0.638	0.514	0.39	0.507	0.472	0.266
NCI-H2405	1.04	1.33	1.39	0.766	1.03	1.07	1.09	0.832	0.764	1.04	1.01	0.941	0.738	0.796	0.743	0.661	0.661	0.645	0.696	0.439
